Measured values from article PMC7766124, “Improved Cell Selectivity of Pseudin-2 via Substitution in the Leucine-Zipper Motif: In Vitro and In Vivo Antifungal Activity” (Antibiotics, 2020).
≈ marks a conversion by molar mass, not a printed value. Where two headings read alike, the source gives them in different places. No end group written: not given here.

What was measured:
[1] = Calcein leakage from fungus-mimic artificial vesicles; conditions: fungus-mimic PC/PE/PI/ergosterol vesicles, 20 μM lipid; peptide/lipid molar ratio 0.05; 100% = 0.03% Triton X-100; three independent experiments
Description: (§1) The permeability of peptides in calcein-entrapped artificial liposomes was assayed by measuring calcein leakage. The desired mixtures of lipids (PC/PE/PI/ergosterol, 5:4:1:2 and PC/CH/SM, 2:1:1, weight ratio) were dissolved in chloroform at 10 mg/mL, dried in a glass tube under nitrogen, and then lyophilized overnight to remove residual solvent. The dried lipid films were resuspended in 1 mL of dye solution (80 mM calcein, 10 mM HEPES buffer, pH 7.2) at 50 °C and vortexed, followed by freeze-thawing for nine cycles and extrusion with polycarbonate filters (0.2-μm pore-size) using an Avanti Mini-Extruder (Avanti Polar Lipids Inc., Alabaster, AL, USA). Free calcein was removed using PD-10 desalting columns (GE Healthcare Life Science, Seoul, Korea). Calcein-entrapped vesicles of 20 μM lipids were incubated with peptides at concentrations of […], 0.02, 0.05, and 0.1 molar ratio (peptide/lipid) and the fluorescence was assessed at 480 (Ex) and 520 (Em) nm using a microtiter SpectraMax M5 reader (Molecular Devices). Complete (100%) release was achieved by the addition of 0.03% Triton X-100 (v/v).

A. fumigatus = format: cell-based, A. fumigatus (KCTC 6145); conditions: 36 h
Description: (§2) Aspergillus flavus (KCTC 6905), A. fumigatus (KCTC 6145), Fusarium moniliforme (KCTC 6149), F. oxysporum (KCTC 16909), C. albicans (KCTC 7270), C. krusei (CCARM 14017), C. parapsilosis (CCARM 14016), C. tropicalis (KCTC 7221), and T. beigelii (KCTC 7707) were obtained from the Korea Collection for Type Cultures (KCTC) and Culture Collection of Antimicrobial Resistant Microbes (CCARM). Mold and yeast fungi were pre-grown on potato dextrose (PD) and yeast extract peptone dextrose (YPD) agars, respectively.
(§3) Antifungal activity of peptides was performed by microtiter plate assays. Fungal conidia from four-day-old molds were collected using 0.08% Triton X-100 (v/v), and pre-cultivated yeast cells were adjusted to 2 × 10^4 spores/mL in 10 mM sodium phosphate buffer (SP, pH 7.2) or 10 mM 2-(N-morpholino)ethanesulfonic acid (MES) buffer (pH 5.5) supplemented with 20% culture medium, followed by addition to peptide solutions (0.25, 0.5, 1, 1.5, 2, 4, 6, 8, 12, 16, 32, 48, and 64 µM) in 96-well microtiter plates. After incubation for 36 h at 28 °C, the hyphal growth of conidia and the proliferation of yeast cells were observed under a light microscope. All assays were performed in triplicate. The MIC values were defined as the lowest concentration of samples that reduced fungal germination (for mold) or cell proliferation (for yeast) by more than 90% [34].

mouse erythrocytes = test: Hemolytic assay; format: cell-based; conditions: 64 µM peptide, 8% (v/v) mRBCs, 37 °C, 2 h (method) / 4 h (figure legend)
Description: Mouse blood was collected into sodium heparin-coated tubes (BD Vacutainer; BD Diagnostics, Oxford, UK). The mRBCs were obtained by centrifugation (800× g, 10 min) and washing with PBS. The washed mRBCs were added to a final concentration of 8% (v/v) in 64 µM peptide solution, followed by incubation for 2 h at 37 °C. After centrifugation, each tube was digitally recorded.

F. oxysporum = format: cell-based, F. oxysporum (KCTC 16909); conditions: 36 h
Description: as §2, §3

[2] = Calcein leakage from mammalian-mimic artificial vesicles; conditions: mammalian-mimic PC/CH/SM vesicles, 20 μM lipid; peptide/lipid molar ratio 0.1; 100% = 0.03% Triton X-100
Description: as §1

F. moniliforme = format: cell-based, Fusarium moniliforme (KCTC 6149); conditions: 36 h
Description: as §2, §3

C. albicans = format: cell-based, C. albicans (KCTC 7270); conditions: 36 h
Description: as §2, §3

A. flavus = format: cell-based, Aspergillus flavus (KCTC 6905); conditions: 36 h
Description: as §2, §3

C. krusei = format: cell-based, C. krusei (CCARM 14017); conditions: 36 h
Description: as §2, §3

C. tropicalis cells [3] = test: SYTOX Green uptake (membrane permeability); format: cell-based; conditions: SP buffer pH 7.2, 0.5 μM SYTOX Green, peptides 1-64 µM, monitored 30 min
Description: C. tropicalis cells pre-grown at 28 °C were washed and suspended (2 × 10^6 cells/mL) in SP buffer (pH 7.2). The cells were pre-incubated with SYTOX Green (final concentration of 0.5 μM) for 15 min in the dark, followed by adding two-fold serial dilutions of peptides at concentrations of 1 to 64 µM. The fluorescence intensity was monitored for 30 min at 485 (Ex) and 520 (Em) nm using a microtiter SpectraMax M5 reader (Molecular Devices, San Jose, CA, USA).

T. beigelii = format: cell-based, T. beigelii (KCTC 7707); conditions: 36 h
Description: as §2, §3

C. tropicalis = format: cell-based, C. tropicalis (KCTC 7221); conditions: 36 h
Description: as §2, §3

C. parapsilosis = format: cell-based, C. parapsilosis (CCARM 14016); conditions: 36 h
Description: as §2, §3

HaCaT cells = test: Cytotoxicity, XTT cell viability assay; format: cell-based, human; conditions: peptides 4-256 µM, 24 h incubation, triplicate
Description: Cell viability was assessed using sodium XTT assays. HaCaT (human immortalized keratinocytes) cells were cultured in Dulbecco’s modified Eagle medium (DMEM; ThermoFisher Scientific, Gibco, Waltman, MA, USA) supplemented with antibiotic-antimycotic (ThermoFisher Scientific, Gibco) and 10% fetal bovine serum (FBS; ThermoFisher Scientific, Gibco) at 37 °C in a humidified chamber containing 5% CO2. The cells were seeded at 5 × 10^4 cells/mL in flat-bottom 96-well microtiter plates in triplicate. Twenty-four hours later, cells were treated with two-fold serial dilutions of peptides (ranging from 256 to 4 µM) in medium, and the cells were further incubated for 24 h. Next, activated-XTT solution was added to each well and the plates were additionally incubated for 4 h. Absorbance in each well was measured at wavelengths of 480 and 650 nm using a microtiter SpectraMax M5 reader (Molecular Devices, Sunnyvale, CA, USA). Triton X-100 (0.1% v/v) and DMEM were used as controls for survival.

C. tropicalis cells [4] = test: Mitochondrial superoxide, MitoSOX Red flow cytometry; format: cell-based; conditions: peptide at MIC for 8 h
Description: Mitochondrial SOX was measured using MitoSOX Red probe. C. tropicalis cells (2 × 10^4 spores/mL) were treated with samples at the appropriate MIC for 8 h and then stained with MitoSOX Red according to the manufacturer’s instructions. The stained cells were acquired by flow cytometry (Attune NxT Acoustic Focusing Cytometer; ThermoFisher Scientific Co., Eugene, OR, USA) at 561 nm by 10,000 total events.

[5] = 10 mM sodium phosphate buffer pH 7.2 with 20% culture medium, 28 °C, triplicate
[6] = acidic: 10 mM MES buffer pH 5.5 with 20% culture medium (value in parentheses), 28 °C, triplicate

## CC[C@H](C)[C@H](NC(=O)CN)C(=O)NCC(=O)N[C@@H](C)C(=O)N[C@H](C(=O)N[C@@H](CC(C)C)C(=O)N[C@@H](CCCCN)C(=O)N[C@H](C(=O)N[C@@H](CC(C)C)C(=O)N[C@H](C(=O)N[C@H](C(=O)NCC(=O)N[C@@H](CC(C)C)C(=O)N1CCC[C@H]1C(=O)N[C@@H](C)C(=O)N[C@@H](CC(C)C)C(=O)N[C@H](C(=O)N[C@@H](CO)C(=O)N[C@@H](Cc1c[nH]c2ccccc12)C(=O)N[C@H](C(=O)N[C@@H](CCCCN)C(=O)N[C@@H](CCCNC(=N)N)C(=O)N[C@@H](CCCCN)C(=O)N[C@@H](CCCNC(=N)N)C(=O)N[C@@H](CCC(N)=O)C(=O)N[C@@H](CCC(N)=O)C(N)=O)[C@@H](C)CC)[C@@H](C)CC)[C@@H](C)O)[C@@H](C)O)C(C)C)C(C)C [Melittin, reference compound]
[1]
  leakage of calcein: 84.1%
A. fumigatus; [5]
  MIC: 6 µM (≈ 17.1 µg/mL)
A. fumigatus; [6]
  MIC: 4 µM (≈ 11.4 µg/mL)
Mouse erythrocytes
  hemolytic effects (hemoglobin release, by visualization): severe hemolysis
F. oxysporum; [5]
  MIC: 64 µM (≈ 182 µg/mL)
F. oxysporum; [6]
  MIC: 32 µM (≈ 91.1 µg/mL)
[2]
  calcein efflux: significant dye leakage
F. moniliforme; [5]
  MIC: 32 (32) µM
F. moniliforme; [6]
  MIC: 32 (32) µM
C. albicans; 10 mM sodium phosphate buffer pH 7.2 with 20% culture medium, 28 °C, >90% reduction of proliferation, triplicate
  MIC: 32 µM (≈ 91.1 µg/mL)
C. albicans; [6]
  MIC: 8 µM (≈ 22.8 µg/mL)
A. flavus; 10 mM sodium phosphate buffer pH 7.2 with 20% culture medium, 28 °C, >90% reduction of germination, triplicate
  MIC: 6 µM (≈ 17.1 µg/mL)
A. flavus; [6]
  MIC: 4 µM (≈ 11.4 µg/mL)
C. krusei; [5]
  MIC: 8 µM (≈ 22.8 µg/mL)
C. krusei; [6]
  MIC: 4 µM (≈ 11.4 µg/mL)
C. tropicalis cells [3]
  SYTOX Green fluorescence intensity: gradual, concentration-dependent increases in fluorescence intensity
T. beigelii; [5]
  MIC: 2 (2) µM
T. beigelii; [6]
  MIC: 2 (2) µM
C. tropicalis; [5]
  MIC: 16 µM (≈ 45.5 µg/mL)
C. tropicalis; [6]
  MIC: 8 µM (≈ 22.8 µg/mL)
C. parapsilosis; [5]
  MIC: 16 µM (≈ 45.5 µg/mL)
C. parapsilosis; [6]
  MIC: 8 µM (≈ 22.8 µg/mL)

## GANALKKVAQGIHEAIKLINNHVQ-NH2 [P2-LZ2]
[1]
  leakage of calcein: 77.0%
A. fumigatus; pH 5.5
  MIC: 16 µM
A. fumigatus; pH 7.2
  MIC: 24 µM
F. oxysporum; pH 5.5
  MIC: 16 µM
F. oxysporum; pH 7.2
  MIC: 2 µM
F. moniliforme; pH 5.5
  MIC: 16 µM
F. moniliforme; pH 7.2
  MIC: 24 µM
C. albicans; pH 5.5
  MIC: 32 µM
C. albicans; pH 7.2
  MIC: 4 µM
A. flavus; pH 5.5
  MIC: 12 µM
A. flavus; pH 7.2
  MIC: 32 µM
C. krusei; pH 5.5
  MIC: 4 µM
C. krusei; pH 7.2
  MIC: 6 µM
T. beigelii; pH 5.5
  MIC: 2 (2) µM
T. beigelii; pH 7.2
  MIC: 2 (2) µM
C. tropicalis; pH 5.5
  MIC: 1.5 µM
C. tropicalis; pH 7.2
  MIC: 2 µM
C. parapsilosis; pH 5.5
  MIC: 64 µM
C. parapsilosis; pH 7.2
  MIC: 48 µM

## GLNAAKKVFQGAHEAIKLINNHVQ-NH2 [P2-LZ1]
[1]
  leakage of calcein: 81.8%
A. fumigatus; pH 5.5
  MIC: 16 µM
A. fumigatus; pH 7.2
  MIC: 64 µM
HaCaT cells
  cytotoxic effects against HaCaT cells: significant, concentration-dependent cytotoxic effects
F. oxysporum; pH 5.5
  MIC: 12 µM
F. oxysporum; pH 7.2
  MIC: 4 µM
F. moniliforme; pH 5.5
  MIC: 48 (48) µM
F. moniliforme; pH 7.2
  MIC: 48 (48) µM
C. albicans; pH 5.5
  MIC: 32 µM
C. albicans; pH 7.2
  MIC: 8 µM
A. flavus; pH 5.5
  MIC: 12 µM
A. flavus; pH 7.2
  MIC: 64 µM
C. krusei; pH 5.5
  MIC: 8 (8) µM
C. krusei; pH 7.2
  MIC: 8 (8) µM
T. beigelii; pH 5.5
  MIC: 2 (2) µM
T. beigelii; pH 7.2
  MIC: 2 (2) µM
C. tropicalis; pH 5.5
  MIC: 2 µM
C. tropicalis; pH 7.2
  MIC: 4 µM
C. parapsilosis; pH 5.5
  MIC: > 64 (>64) µM
C. parapsilosis; pH 7.2
  MIC: > 64 (>64) µM

## GLNALKKVFQGAHEAIKLANNHVQ-NH2 [P2-LZ3]
[1]
  leakage of calcein: 48.3%
A. fumigatus; pH 5.5
  MIC: 16 µM
A. fumigatus; pH 7.2
  MIC: 64 µM
F. oxysporum; pH 5.5
  MIC: 16 µM
F. oxysporum; pH 7.2
  MIC: 4 µM
F. moniliforme; pH 5.5
  MIC: 32 µM
F. moniliforme; pH 7.2
  MIC: 64 µM
C. albicans; pH 5.5
  MIC: 16 µM
C. albicans; pH 7.2
  MIC: 8 µM
A. flavus; pH 5.5
  MIC: 32 µM
A. flavus; pH 7.2
  MIC: 64 µM
C. krusei; pH 5.5
  MIC: 8 (8) µM
C. krusei; pH 7.2
  MIC: 8 (8) µM
T. beigelii; pH 5.5
  MIC: 2 µM
T. beigelii; pH 7.2
  MIC: 6 µM
C. tropicalis; pH 5.5
  MIC: 2 (2) µM
C. tropicalis; pH 7.2
  MIC: 2 (2) µM
C. parapsilosis; pH 5.5
  MIC: >64 (>64) µM
C. parapsilosis; pH 7.2
  MIC: >64 (>64) µM

## GLNALKKVKQGKHEAIKLINNHVQ-NH2 [P2-LZ5]
[1]
  leakage of calcein: 33.8%
A. fumigatus; pH 5.5
  MIC: > 64 µM
A. fumigatus; pH 7.2
  MIC: 16 µM
C. tropicalis cells [4]
  MitoSOX Red fluorescence (mitochondrial SOX): significantly increased
F. oxysporum; pH 5.5
  MIC: 16 µM
F. oxysporum; pH 7.2
  MIC: 6 µM
F. moniliforme; pH 5.5
  MIC: 64 (>64) µM
F. moniliforme; pH 7.2
  MIC: 64 (>64) µM
C. albicans; pH 5.5
  MIC: 64 µM
C. albicans; pH 7.2
  MIC: 32 µM
A. flavus; pH 5.5
  MIC: > 64 µM
A. flavus; pH 7.2
  MIC: 16 µM
C. krusei; pH 5.5
  MIC: 16 µM
C. krusei; pH 7.2
  MIC: 48 µM
C. tropicalis cells [3]
  SYTOX Green fluorescence intensity: much lower than that in the presence of the other peptides
T. beigelii; pH 5.5
  MIC: 32 µM
T. beigelii; pH 7.2
  MIC: 8 µM
C. tropicalis; pH 5.5
  MIC: 16 µM
C. tropicalis; pH 7.2
  MIC: 8 µM
C. parapsilosis; pH 5.5
  MIC: >64 (>64) µM
C. parapsilosis; pH 7.2
  MIC: >64 (>64) µM
